Test results from patent publication US20080032959A1, “Estrogen Receptor Modulators” (priority 2004, published 2008).

Legend:
Type in all cases: in vivo, mouse
[1] = test system: wild type and estrogen receptor beta knockout (βERKO) mice; test: Uterine weights after 3 days of treatment; conditions: treated 3 days, E2 0.2 mg/kg, A 5 or 10 mg/kg, uteri collected 24 hrs after last treatment
Protocol: Animals (n=5/group) were treated for 3 days and brain and uteri were collected 24 hrs after last treatment.

[2] = test system: Progesterone receptor (PR) protein in the dorsal raphe nucleus; test: Murine brain progestin receptor (PR) ICC assay, dorsal raphe nucleus; conditions: for PR induction in the dorsal raphe nucleus: βERKO mouse lacking functional ERβ, treated 3 days, E2 0.2 mg/kg, A 5 or 10 mg/kg, immunohistochemistry 24 h after last treatment
Protocol: (§1) Animals (n=5/group) were treated for 3 days and brains and uteri were collected 24 hours after the last treatment and processed for immunohistochemistry.
(§2) Female mice (12-16 wks of age) are ovariectomized by the vendor (C57BL/6s from Charles River) and shipped one week later. Animals are fed a soy-free rodent chow upon arrival at the Merck animal facility, where they are given an additional week to adjust to the new environment. […] Approximately 24 hours after the last dose, animals are deeply anesthetized with ketamine/xylazine and are transcardially perfused with 50 ml of 3.5% acrolein and 2% paraformaldehyde in 0.1 M sodium phosphate buffer (PB), pH 7.4. Brains are immediately removed and placed into ice cold 0.1 M PB and stored at 4 C overnight. Brains are sectioned at 40 μm on a vibrating microtome in 0.1M PB, transferred into cryoprotectant (30% sucrose; 30% ethylene glycol in 0.1 M PB, pH 7.4) and stored at −20° C. until processing for immunocytochemistry.
Free floating 40 μm sections are washed in cold 0.1 M phosphate buffered saline (PBS), pH 7.4, to thoroughly remove cryoprotectant. To insure consistent immunolabeling across animals, a screen-bottom 24-well tissue holder and fitted solid lucite tray containing buffer is used to conduct the experiment. Thus, all sections are co-incubated in the same solutions/conditions during the entire experiment. To deter non-specific staining in acrolein-fixed tissue, sections are washed in 1% sodium borohydride (NaBH4) in PBS for 30 minutes and rinsed 8 to 10 times with PBS. Endogenous peroxidase activity is inhibited by washing tissue in 0.3% hydrogen peroxide and 10% methanol in PBS for 15 minutes. Sections are washed in PBS and blocked in either 1) 2% normal goat serum in PBS with 0.05% Triton X-100 (PBST) for one hour, or 2) a mouse-on-mouse Ig blocking reagent (Vector) for 1 hour followed by a mouse protein concentrate (Vector) for 30 min. Sections are incubated with PR antibody in blocking buffer diluted to 1% normal serum over one night at RT and one night at 4 C, or three nights at 4 C. […]

[3] = test system: PR immunoreactive cells in the hippocampus; test: Murine brain PR ICC assay, hippocampus (PR regulated exclusively by ERα); conditions: 3 days
Protocol: as §1, §2
Free floating 40 μm sections are washed in cold 0.1 M phosphate buffered saline (PBS), pH 7.4, to thoroughly remove cryoprotectant. To insure consistent immunolabeling across animals, a screen-bottom 24-well tissue holder and fitted solid lucite tray containing buffer is used to conduct the experiment. Thus, all sections are co-incubated in the same solutions/conditions during the entire experiment. […]

Row | Compound | uterine weight [1] | ER-beta activity in brain ([2]; at the doses tested (A 5 or 10 mg/kg), 3 days) | PR induction in the dorsal raphe nucleus [2] | PR immunoreactive cells in the hippocampus ([3]; 5 mg/kg) | PR immunoreactive cells in the hippocampus ([3]; high dose 10 mg/kg)
1 | C[C@]12CC[C@H]3[C@@H](CC=C4C[C@@H](O)CC[C@@]43C)[C@@H]1CC[C@@H]2O [A, delta-5-androstene-3-beta-17-beta-diol] | only a modest effect | full ER-beta activity in brain | complete loss of PR induction | no PR immunoreactivity | just an occasional, lightly-stained cell
2 | C[C@]12CC[C@@H]3c4ccc(O)cc4CC[C@H]3[C@@H]1CC[C@@H]2O [E2, 17β-estradiol, reference compound] | robustly increased uterine weight | – | attenuation of PR induction | – | –
